Measurements reported in ChEMBL document CHEMBL1201862, “PubChem BioAssay data set” (2004).
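Test compounds were applied to cells in 96-well plates for 48 hours at 5 doses. At the GI50, growth is halved.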 The source made the active and inactive calls. Cut-off read from the data, not from the text of the source: active = GI50 up to about 1.1 µM and inactive = higher.

Tests used:
Assay in all cases: inhibition of tumour cell growth, NCI panel, 48 h
A498 = tested on: A498
A549 = tested on: A549
ACHN = tested on: ACHN
CCRF-CEM = tested on: CCRF-CEM
COLO 205 = tested on: COLO 205
EKVX = tested on: EKVX
HCT-116 = tested on: HCT-116
HOP-92 = tested on: HOP-92
MDA-MB-231 = tested on: MDA-MB-231
MDA-MB-435 = tested on: MDA-MB-435
Malme-3M = tested on: Malme-3M
OVCAR-4 = tested on: OVCAR-4
OVCAR-8 = tested on: OVCAR-8
SK-MEL-28 = tested on: SK-MEL-28
SR = tested on: SR
U-251 = tested on: U-251
UACC-257 = tested on: UACC-257
M14 = tested on: M14
SK-OV-3 = tested on: SK-OV-3

Compound | GI50 (A498) | GI50 (A549) | GI50 (ACHN) | GI50 (CCRF-CEM) | GI50 (COLO 205) | GI50 (EKVX) | GI50 (HCT-116) | GI50 (HOP-92) | GI50 (MDA-MB-231) | GI50 (MDA-MB-435) | GI50 (Malme-3M) | GI50 (OVCAR-4) | GI50 (OVCAR-8) | GI50 (SK-MEL-28) | GI50 (SR) | GI50 (U-251) | GI50 (UACC-257) | GI50 (M14) | GI50 (SK-OV-3)
Oc1nc2ccccc2c(O)c1Cc1ccccc1 | > 100 µM (inactive) | > 100 µM (inactive) | > 100 µM (inactive) | > 100 µM (inactive) | > 100 µM (inactive) | > 100 µM (inactive) | > 100 µM (inactive) | > 100 µM (inactive) | > 100 µM (inactive) | > 100 µM (inactive) | > 100 µM (inactive) | > 100 µM (inactive) | > 100 µM (inactive) | > 100 µM (inactive) | > 100 µM (inactive) | > 100 µM (inactive) | > 100 µM (inactive) | – | –
C=C(C)CNCCN | > 100 µM (inactive) | > 100 µM (inactive) | > 100 µM (inactive) | > 100 µM (inactive) | – | > 100 µM (inactive) | > 100 µM (inactive) | > 100 µM (inactive) | > 100 µM (inactive) | > 100 µM (inactive) | > 100 µM (inactive) | > 100 µM (inactive) | > 100 µM (inactive) | > 100 µM (inactive) | > 100 µM (inactive) | > 100 µM (inactive) | > 100 µM (inactive) | > 100 µM (inactive) | –
CC1(CCC(=O)OC2CCCCC2)OCCO1 | > 100 µM (inactive) | > 100 µM (inactive) | > 100 µM (inactive) | > 100 µM (inactive) | > 100 µM (inactive) | > 100 µM (inactive) | > 100 µM (inactive) | > 100 µM (inactive) | > 100 µM (inactive) | > 100 µM (inactive) | > 100 µM (inactive) | > 100 µM (inactive) | > 100 µM (inactive) | > 100 µM (inactive) | > 100 µM (inactive) | > 100 µM (inactive) | > 100 µM (inactive) | > 100 µM (inactive) | > 100 µM (inactive)
O=C(/C=C/c1ccccc1)c1cc(Br)ccc1O | 13.8 µM (inactive) | 24 µM (inactive) | 15.1 µM (inactive) | 6.3 µM (inactive) | 17.3 µM (inactive) | 13.8 µM (inactive) | 16.3 µM (inactive) | 3.15 µM (inactive) | 18 µM (inactive) | 15.6 µM (inactive) | – | 15.1 µM (inactive) | 16 µM (inactive) | 15.5 µM (inactive) | 2.09 µM (inactive) | 15.1 µM (inactive) | 14 µM (inactive) | 24 µM (inactive) | 20 µM (inactive)
Oc1ccc(C[C@@H]2CN[C@H](Cc3ccc(O)c(Br)c3)CN2)cc1 | > 100 µM (inactive) | > 100 µM (inactive) | > 100 µM (inactive) | > 100 µM (inactive) | > 100 µM (inactive) | > 100 µM (inactive) | > 100 µM (inactive) | > 100 µM (inactive) | > 100 µM (inactive) | > 100 µM (inactive) | – | > 100 µM (inactive) | > 100 µM (inactive) | > 100 µM (inactive) | > 100 µM (inactive) | > 100 µM (inactive) | > 100 µM (inactive) | > 100 µM (inactive) | > 100 µM (inactive)
[N-]=[N+]=NC1=C(c2ccccn2)C(=O)c2cccc3cccc1c23 | 5.48 µM (inactive) | 27.7 µM (inactive) | 15.7 µM (inactive) | 7.03 µM (inactive) | 76.9 µM (inactive) | – | 8.63 µM (inactive) | 29.9 µM (inactive) | 69.3 µM (inactive) | 36.5 µM (inactive) | 49.2 µM (inactive) | 31.1 µM (inactive) | – | > 100 µM (inactive) | 27.7 µM (inactive) | 29.2 µM (inactive) | 32.8 µM (inactive) | 23.9 µM (inactive) | 36.7 µM (inactive)
Nc1ncc(Br)c(NCC2(CO)CCC2)n1 | 35.6 µM (inactive) | > 100 µM (inactive) | > 100 µM (inactive) | > 100 µM (inactive) | > 100 µM (inactive) | 58.5 µM (inactive) | > 100 µM (inactive) | 56.1 µM (inactive) | > 100 µM (inactive) | > 100 µM (inactive) | > 100 µM (inactive) | > 100 µM (inactive) | > 100 µM (inactive) | > 100 µM (inactive) | > 100 µM (inactive) | > 100 µM (inactive) | > 100 µM (inactive) | – | –
CC(N1CCOCC1)C(O)(c1ccccc1)c1ccccn1 (stereo not drawn) | 38.8 µM (inactive) | > 100 µM (inactive) | 52.8 µM (inactive) | – | > 100 µM (inactive) | > 100 µM (inactive) | > 100 µM (inactive) | > 100 µM (inactive) | > 100 µM (inactive) | > 100 µM (inactive) | > 100 µM (inactive) | > 100 µM (inactive) | > 100 µM (inactive) | > 100 µM (inactive) | > 100 µM (inactive) | > 100 µM (inactive) | > 100 µM (inactive) | > 100 µM (inactive) | > 100 µM (inactive)
CC(C)COC(=O)OC(=O)c1ccc(N(C)Cc2cnc3nc(N)nc(N)c3n2)cc1 | > 40.4 µM (inactive) | 5.61 µM (inactive) | 11.4 µM (inactive) | 3.69 µM (inactive) | > 75.3 µM (inactive) | > 52.7 µM (inactive) | 2.43 µM (inactive) | 47.5 µM (inactive) | > 100 µM (inactive) | > 100 µM (inactive) | 36.1 µM (inactive) | > 100 µM (inactive) | 6.12 µM (inactive) | > 86.1 µM (inactive) | 0.521 µM (active) | > 29.7 µM (inactive) | 47.3 µM (inactive) | 9.44 µM (inactive) | > 100 µM (inactive)
O=C(OCc1ccccc1)N1c2cc([N+](=O)[O-])ccc2C(=O)N2CCC[C@H]2C1O (stereo partly drawn) | > 100 µM (inactive) | > 100 µM (inactive) | > 100 µM (inactive) | > 100 µM (inactive) | > 100 µM (inactive) | > 100 µM (inactive) | > 100 µM (inactive) | > 100 µM (inactive) | > 100 µM (inactive) | > 100 µM (inactive) | – | > 100 µM (inactive) | > 100 µM (inactive) | > 100 µM (inactive) | > 100 µM (inactive) | > 100 µM (inactive) | > 100 µM (inactive) | > 100 µM (inactive) | > 100 µM (inactive)
CSc1nc(NC(C)C)c2c(n1)Sc1nc3ccccc3n1N=C2 | 3.09 µM (inactive) | 5.33 µM (inactive) | 5.83 µM (inactive) | 6.58 µM (inactive) | 7.69 µM (inactive) | 21.1 µM (inactive) | 7.01 µM (inactive) | 11.1 µM (inactive) | 11.1 µM (inactive) | 17.4 µM (inactive) | 9.18 µM (inactive) | 3.85 µM (inactive) | 4.92 µM (inactive) | > 100 µM (inactive) | 13.2 µM (inactive) | 11.5 µM (inactive) | 29.1 µM (inactive) | 40.5 µM (inactive) | 11.1 µM (inactive)
CCOC(=O)NNC1(SC)NC(=O)c2c(cc(Cl)oc2=O)O1 (stereo not drawn) | 14.2 µM (inactive) | 8.11 µM (inactive) | 1.87 µM (inactive) | 2.34 µM (inactive) | 6.93 µM (inactive) | 6.85 µM (inactive) | 1.46 µM (inactive) | 1.96 µM (inactive) | 8.41 µM (inactive) | 4.83 µM (inactive) | – | 6.17 µM (inactive) | 2.07 µM (inactive) | 3.08 µM (inactive) | 2.36 µM (inactive) | 10.8 µM (inactive) | 7.26 µM (inactive) | 3.37 µM (inactive) | 8.02 µM (inactive)
NC(=S)Nc1ccc2c(c1)oc1ccccc12 | > 100 µM (inactive) | > 100 µM (inactive) | > 100 µM (inactive) | 9.91 µM (inactive) | > 100 µM (inactive) | 10.4 µM (inactive) | > 100 µM (inactive) | > 100 µM (inactive) | > 100 µM (inactive) | > 100 µM (inactive) | 8.11 µM (inactive) | > 100 µM (inactive) | > 100 µM (inactive) | > 100 µM (inactive) | > 100 µM (inactive) | > 100 µM (inactive) | > 100 µM (inactive) | > 100 µM (inactive) | > 100 µM (inactive)
COc1ccc(CC2c3cc(OC)c(OC)c(OC)c3CC[N+]2(C)C)cc1Oc1ccc(CC2c3cc4c(c(OC)c3CCN2C)OCO4)cc1 (stereo not drawn) | > 100 µM (inactive) | > 100 µM (inactive) | > 100 µM (inactive) | – | > 100 µM (inactive) | > 100 µM (inactive) | > 100 µM (inactive) | > 100 µM (inactive) | > 100 µM (inactive) | > 100 µM (inactive) | > 100 µM (inactive) | > 100 µM (inactive) | > 100 µM (inactive) | > 100 µM (inactive) | 52.1 µM (inactive) | > 100 µM (inactive) | > 100 µM (inactive) | > 100 µM (inactive) | > 100 µM (inactive)
CC1OC(=O)C(C(C)C)NC(=O)C(C(C)C)OC(=O)C(C(C)C)NC(=O)C(C)OC(=O)C(C(C)C)NC(=O)C(C(C)C)OC(=O)C(C(C)C)NC(=O)C(C)OC(=O)C(C(C)C)NC(=O)C(C(C)C)OC(=O)C(C(C)C)NC1=O (stereo not drawn) | 0.0025 µM (active) | – | < 0.0001 µM (active) | 0.0032 µM (active) | 0.0025 µM (active) | 0.0198 µM (active) | – | 0.00255 µM (active) | < 0.0001 µM (active) | < 0.0001 µM (active) | 0.0025 µM (active) | – | 0.0025 µM (active) | 0.0025 µM (active) | < 0.0001 µM (active) | 0.0025 µM (active) | 0.0025 µM (active) | < 0.0001 µM (active) | 0.00326 µM (active)
